Data taken from ChEMBL document CHEMBL4308841, “Synthesis, in vitro antiproliferative activity, and kinase inhibitory effects of pyrazole-containing diarylureas and diarylamides” (Eur J Med Chem, 2018).

Assays:
SK-MEL-2 = assay: Growth inhibition of human SK-MEL-2 cells assessed as cell growth at 0.1 uM incubated for 48 hrs by sulforhodamine B assay relative to control; assay type: functional; details: SK-MEL-2, 48 h, read-out: Activity
HCT-15 = assay: Growth inhibition of human HCT15 cells assessed as cell growth at 0.1 uM incubated for 48 hrs by sulforhodamine B assay relative to control; assay type: functional; details: HCT-15, 48 h, read-out: Activity
U-251 = assay: Growth inhibition of human U251 cells assessed as cell growth at 0.01 uM incubated for 48 hrs by sulforhodamine B assay relative to control; assay type: functional; details: U-251, 48 h, read-out: Activity
MOLT-4 = assay: Growth inhibition of human MOLT4 cells assessed as cell growth at 1 uM incubated for 48 hrs by sulforhodamine B assay relative to control; assay type: functional; details: MOLT-4, 48 h, read-out: Activity
Hs-578T = assay: Growth inhibition of human Hs578T cells assessed as cell growth at 0.1 uM incubated for 48 hrs by sulforhodamine B assay relative to control; assay type: functional; details: read-out: Activity
UACC-62 = assay: Growth inhibition of human UACC62 cells assessed as cell growth at 0.1 uM incubated for 48 hrs by sulforhodamine B assay relative to control; assay type: functional; details: UACC-62, 48 h, read-out: Activity
T47D = assay: Growth inhibition of human T47D cells assessed as cell growth at 0.01 uM incubated for 48 hrs by sulforhodamine B assay relative to control; assay type: functional; details: read-out: Activity
IGROV-1 = assay: Growth inhibition of human IGROV1 cells incubated for 48 hrs by sulforhodamine B assay; assay type: functional, cell-based; details: IGROV-1, 48 h
NCI-H322M [1] = assay: Growth inhibition of human NCI-H322M cells incubated for 48 hrs by sulforhodamine B assay; assay type: functional, cell-based
CAKI-1 = assay: Growth inhibition of human Caki1 cells assessed as cell growth at 0.1 uM incubated for 48 hrs by sulforhodamine B assay relative to control; assay type: functional; details: CAKI-1, 48 h, read-out: Activity
BT-549 [2] = assay: Growth inhibition of human BT549 cells assessed as cell growth at 0.01 uM incubated for 48 hrs by sulforhodamine B assay relative to control; assay type: functional; details: BT-549, 48 h, read-out: Activity
SW-620 = assay: Growth inhibition of human SW620 cells assessed as cell growth at 0.1 uM incubated for 48 hrs by sulforhodamine B assay relative to control; assay type: functional; details: SW-620, 48 h, read-out: Activity
HL-60(TB) = assay: Growth inhibition of human HL-60(TB) cells assessed as cell growth at 0.1 uM incubated for 48 hrs by sulforhodamine B assay relative to control; assay type: functional; details: HL-60, 48 h, read-out: Activity
SF-295 = assay: Growth inhibition of human SF295 cells assessed as cell growth at 100 uM incubated for 48 hrs by sulforhodamine B assay relative to control; assay type: functional; details: SF-295, 48 h, read-out: Activity
OVCAR-3 = assay: Growth inhibition of human OVCAR3 cells assessed as cell growth at 0.01 uM incubated for 48 hrs by sulforhodamine B assay relative to control; assay type: functional; details: OVCAR-3, 48 h, read-out: Activity
SNB-19 [3] = assay: Growth inhibition of human SNB19 cells assessed as cell growth at 0.1 uM incubated for 48 hrs by sulforhodamine B assay relative to control; assay type: functional; details: SNB-19, 48 h, read-out: Activity
SNB-19 [4] = assay: Growth inhibition of human SNB19 cells assessed as cell growth at 100 uM incubated for 48 hrs by sulforhodamine B assay relative to control; assay type: functional; details: SNB-19, 48 h, read-out: Activity
BT-549 [5] = assay: Growth inhibition of human BT549 cells incubated for 48 hrs by sulforhodamine B assay; assay type: functional, cell-based; details: BT-549, 48 h
SK-MEL-28 = assay: Growth inhibition of human SK-MEL-28 cells assessed as cell growth at 1 uM incubated for 48 hrs by sulforhodamine B assay relative to control; assay type: functional; details: SK-MEL-28, 48 h, read-out: Activity
MDA-MB-468 = assay: Growth inhibition of human MDA-MB-468 cells assessed as cell growth at 0.01 uM incubated for 48 hrs by sulforhodamine B assay relative to control; assay type: functional; details: MDA-MB-468, 48 h, read-out: Activity
M14 = assay: Growth inhibition of human M14 cells assessed as cell growth at 0.1 uM incubated for 48 hrs by sulforhodamine B assay relative to control; assay type: functional; details: M14, 48 h, read-out: Activity
NCI-H522 = assay: Growth inhibition of human NCI-H522 cells assessed as cell growth at 1 uM incubated for 48 hrs by sulforhodamine B assay relative to control; assay type: functional; details: NCI-H522, 48 h, read-out: Activity
ACHN = assay: Growth inhibition of human ACHN cells incubated for 48 hrs by sulforhodamine B assay; assay type: functional, cell-based
NCI-H322M [6] = assay: Growth inhibition of human NCI-H322M cells assessed as cell growth at 0.01 uM incubated for 48 hrs by sulforhodamine B assay relative to control; assay type: functional; details: read-out: Activity
UO-31 = assay: Growth inhibition of human UO31 cells assessed as cell growth at 100 uM incubated for 48 hrs by sulforhodamine B assay relative to control; assay type: functional; details: UO-31, 48 h, read-out: Activity
SK-MEL-5 = assay: Growth inhibition of human SK-MEL-5 cells assessed as cell growth at 100 uM incubated for 48 hrs by sulforhodamine B assay relative to control; assay type: functional; details: SK-MEL-5, 48 h, read-out: Activity
CCRF-CEM [7] = assay: Growth inhibition of human CCRF-CEM cells assessed as cell growth at 100 uM incubated for 48 hrs by sulforhodamine B assay relative to control; assay type: functional; details: read-out: Activity
KM12 = assay: Growth inhibition of human KM12 cells incubated for 48 hrs by sulforhodamine B assay; assay type: functional, cell-based; details: KM12, 48 h
786-0 = assay: Growth inhibition of human 786-0 cells incubated for 48 hrs by sulforhodamine B assay; assay type: functional, cell-based; details: 786-0, 48 h
CCRF-CEM [8] = assay: Growth inhibition of human CCRF-CEM cells assessed as cell growth at 0.01 uM incubated for 48 hrs by sulforhodamine B assay relative to control; assay type: functional; details: read-out: Activity
[9] = read-out: LC50 (the source's name)
[10] = read-out: pLC50 (the source's name) (converted)

## COc1cc(Cl)cc(-c2nn(-c3cccc(NC(=O)c4ccc(N5CCOCC5)c(C(F)(F)F)c4)c3)cc2-c2ccncc2)c1
SK-MEL-2
  growth at 0.1 µM: 83%
HCT-15
  growth at 0.1 µM: 85%
U-251
  growth at 0.01 µM: 95%
MOLT-4
  growth at 1 µM: 77%
Hs-578T
  growth at 0.1 µM: 92%
UACC-62
  growth at 0.1 µM: 91%
T47D
  growth at 0.01 µM: 94%
IGROV-1; read-out: GI50
  GI50: > 100 µM
IGROV-1; [9]
  CC50: > 100 µM
IGROV-1; read-out: TGI
  TGI: > 100 µM
IGROV-1; read-out: pGI50 (converted)
  GI50: > 100 µM
IGROV-1; [10]
  CC50: > 100 µM
IGROV-1; read-out: pTGI (converted)
  TGI: > 100 µM
NCI-H322M [1]; read-out: GI50
  GI50: 7.37 µM
NCI-H322M [1]; [9]
  CC50: > 100 µM
NCI-H322M [1]; read-out: TGI
  TGI: > 100 µM
NCI-H322M [1]; read-out: pGI50 (converted)
  GI50: 74.1 µM
NCI-H322M [1]; [10]
  CC50: > 100 µM
NCI-H322M [1]; read-out: pTGI (converted)
  TGI: > 100 µM
CAKI-1
  growth at 0.1 µM: 100%
BT-549 [2]
  growth at 0.01 µM: 104%
SW-620
  growth at 0.1 µM: 101%
HL-60(TB)
  growth at 0.1 µM: 91%
SF-295
  growth at 100 µM: -32%
OVCAR-3
  growth at 0.01 µM: 100%
SNB-19 [3]
  growth at 0.1 µM: 94%
SNB-19 [4]
  growth at 100 µM: 60%
BT-549 [5]; read-out: GI50
  GI50: 5.9 µM
BT-549 [5]; [9]
  CC50: > 100 µM
BT-549 [5]; read-out: TGI
  TGI: > 100 µM
BT-549 [5]; read-out: pGI50 (converted)
  GI50: 89.1 µM
BT-549 [5]; [10]
  CC50: > 100 µM
BT-549 [5]; read-out: pTGI (converted)
  TGI: > 100 µM
SK-MEL-28
  growth at 1 µM: 53%
MDA-MB-468
  growth at 0.01 µM: 94%
M14
  growth at 0.1 µM: 96%
NCI-H522
  growth at 1 µM: 77%
ACHN; read-out: GI50
  GI50: 7.31 µM
ACHN; [9]
  CC50: > 100 µM
ACHN; read-out: TGI
  TGI: > 100 µM
ACHN; read-out: pGI50 (converted)
  GI50: 7.24 µM
ACHN; [10]
  CC50: > 100 µM
ACHN; read-out: pTGI (converted)
  TGI: > 100 µM
NCI-H322M [6]
  growth at 0.01 µM: 97%
UO-31
  growth at 100 µM: 17%
SK-MEL-5
  growth at 100 µM: 21%
CCRF-CEM [7]
  growth at 100 µM: 18%
KM12; read-out: GI50
  GI50: 5.38 µM
KM12; [9]
  CC50: > 100 µM
KM12; read-out: TGI
  TGI: > 100 µM
KM12; read-out: pGI50 (converted)
  GI50: 5.37 µM
KM12; [10]
  CC50: > 100 µM
KM12; read-out: pTGI (converted)
  TGI: > 100 µM
786-0; read-out: GI50
  GI50: 3.73 µM
786-0; [9]
  CC50: > 100 µM
786-0; read-out: TGI
  TGI: 29.6 µM
786-0; read-out: pGI50 (converted)
  GI50: 3.24 µM
786-0; [10]
  CC50: > 100 µM
786-0; read-out: pTGI (converted)
  TGI: 29.5 µM
CCRF-CEM [8]
  growth at 0.01 µM: 96%
